Experimental data published in patent publication US20230066156A1, “6-SUBSTITUTED, 22-CYANO HYODEOXYCHOLANIC ANALOGUES AND USES THEREOF” (PRECISION BIO-THERAPEUTICS S.R.L., priority 2019, published 2023).

System: THP1 cells
Test: Relative mRNA expression of pro- and anti-inflammatory genes by Real-Time PCR in LPS-activated THP1 cells
Type: cell-based, human
Details: 10 μM, normalized to GAPDH, FIG. 1
Procedure: THP-1, a human monocytic cell line derived from an acute monocytic leukemia patient, were cultured and maintained at 37° C. and 5% CO2 in RPMI with 10% FBS, 1% glutamine and 1% penicillin/streptomycin. THP1 cells (1.5×10^6) were serum starved for 6 h and then classically activated with LPS (1 ng/ml, L2880; Sigma-Aldrich), and exposed or not to GPBAR1 agonists previously tested in transactivation assay.
Furthermore, selected compounds exert in vitro activity on GPBAR1-target genes reducing the production of pro-inflammatory cytokines (IL-6, TNF-α, IL-1β, […]) in THP1 monocytic/macrophage cells primed with LPS and co-incubated with or without the selected compounds at 10 μM (FIG. 1).
Values are normalized relative to GAPDH mRNA and are expressed as mean±SEM (n=3); #p<0.05.
Colon samples were immediately frozen in liquid nitrogen and stored at −80° C. until used, mechanically homogenated with the aid of a pestle, and the obtained materials re-suspended in 1 ml of Trizol (Thermo Scientific™). THP1 cells were spin-dried at 1300 rpm and then the pellets were re-suspended in 1 ml of Trizol (Thermo Scientific™). The RNA was extracted according to the manufacturer's protocol. After purification from genomic DNA by DNase-I treatment (Thermo Scientific™), 1 μg of RNA from each sample was reverse-transcribed using random hexamer primers with Superscript-II (Thermo Scientific™) in a 20 μL reaction volume; 10 ng cDNA were amplified in a 20 μL solution containing 200 nM of each primer and 10 μL of SYBR Select Master Mix (Thermo Scientific™). All reactions were performed in triplicate, and the thermal cycling conditions were as follows: 3 min at 95° C., followed by 40 cycles of 95° C. for 15 s, 56° C. for 20 s and 72° C. for 30 s, using a Step One Plus machine (Applied Biosystem). The relative mRNA expression was calculated accordingly to the 2^(−ΔCt) method comparing the expression of different genes to that of GAPDH housekeeping. Primers were designed using the software PRIMER3 (http://frodo.wi.mit.edu/primer3/) using published data obtained from the NCBI database. The primer used for murine samples were conducted as follows (forward and reverse): Gapdh (for […] (SEQ ID: 1); rev […] (SEQ ID: 2)), Tnf-α (for […] (SEQ ID: 3); rev […] (SEQ ID: 4)), Il-6 (for […] (SEQ ID: 5); rev […] (SEQ ID: 6)), Il-1β (for […] (SEQ ID: 7); rev […] (SEQ ID: 8)), Il-10 (for […] (SEQ ID: 9); rev […] (SEQ ID: 10)), Gpbar1 (for […] (SEQ ID: 11); rev […] (SEQ ID: 12)). […]

Structure (SMILES): CC[C@]1(O)C[C@H]2[C@@H]3CC[C@H]([C@H](C)CC#N)[C@@]3(C)CC[C@@H]2[C@@]2(C)CC[C@@H](O)C[C@@H]12 [PBT110B, 3α,6α-dihydroxy-6β-ethyl-24-nor-5β-cholan-23-nitrile]
- IL1-β production (relative mRNA expression): significantly reduced
- IL-6 production (relative mRNA expression): significantly reduced
- TNF-α production (relative mRNA expression): significantly reduced
- expression of anti-inflammatory gene IL-10: increased
